In brackets after ≈: the same amount, converted by molar mass.
Experiments:
[1] = target: T1, G-protein coupled bile acid receptor 1 (Homo sapiens, UniProt Q8TDU6); assay: Agonist activity at human TGR5 receptor expressed in HEK293 cells cotransfected with pCMV tag4b-TGR5 assessed as activation of intracellular cAMP production incubated overnight by luciferase reporter gene assay; type: functional, cell-based
T1 sequence (Q8TDU6 whole entry): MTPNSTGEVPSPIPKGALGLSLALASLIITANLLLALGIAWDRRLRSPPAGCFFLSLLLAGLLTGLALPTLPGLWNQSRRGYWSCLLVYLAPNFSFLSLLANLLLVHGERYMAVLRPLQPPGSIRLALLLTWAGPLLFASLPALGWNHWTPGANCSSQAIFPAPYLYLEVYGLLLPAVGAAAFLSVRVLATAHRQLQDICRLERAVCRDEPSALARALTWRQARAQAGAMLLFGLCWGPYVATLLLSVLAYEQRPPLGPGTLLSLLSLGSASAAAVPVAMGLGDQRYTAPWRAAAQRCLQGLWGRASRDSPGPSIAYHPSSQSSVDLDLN

[2] = target: T2, G-protein coupled bile acid receptor 1 (Mus musculus, UniProt Q80SS6); assay: Agonist activity at mouse TGR5 receptor expressed in HEK293 cells cotransfected with pCMV AC6-TGR5 assessed as activation of intracellular cAMP production incubated overnight by luciferase reporter gene assay; type: functional, cell-based
T2 sequence (Q80SS6 whole entry): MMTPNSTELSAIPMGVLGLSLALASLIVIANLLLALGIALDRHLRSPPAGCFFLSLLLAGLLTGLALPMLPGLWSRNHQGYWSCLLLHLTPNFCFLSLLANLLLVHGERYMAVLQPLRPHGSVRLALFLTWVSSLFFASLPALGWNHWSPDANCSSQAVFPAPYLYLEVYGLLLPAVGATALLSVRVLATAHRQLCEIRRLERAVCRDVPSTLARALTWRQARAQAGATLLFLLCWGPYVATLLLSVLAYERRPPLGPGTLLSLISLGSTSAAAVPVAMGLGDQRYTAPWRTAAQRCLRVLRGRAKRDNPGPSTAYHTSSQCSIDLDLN

[3] = Apparent permeability across basolateral to apical side in human Caco-2 cells measured after 1 hr by LC-MS/MS analysis
[4] = Apparent permeability across apical to basolateral side in human Caco-2 cells measured after 1 hr by LC-MS/MS analysis
[5] = physchem; conditions: buffer, pH 7.4
[6] = physchem; conditions: buffer, pH 7.4; remark: listed apart in the source
[7] = in vitro; conditions: CD-1, mouse, liver microsomes
[8] = in vitro; conditions: CD-1, mouse, liver microsomes; remark: listed apart in the source
[9] = in vitro; conditions: CD-1, mouse, plasma

| EC50 ([1]; read-out: EC50) [nM] | EC50 ([2]; read-out: EC50) [nM] | SMILES | also measured |
| --- | --- | --- | --- |
| 1200 | – | CC1=C(C(=O)OCc2ccccc2)C(c2ccc(C(F)(F)F)cc2)CC(=O)N1 (stereo not given) | – |
| – | 2300 | CC1=C(C(=O)OCc2ccccc2)C(c2ccccc2OC(C)C)CC(=O)N1 (stereo not given) | – |
| 500 | 900 | COCCN1C(=O)CC(c2ccc(Cl)cc2)C(C(=O)OCc2ccccc2)=C1C (stereo not given) | – |
| 223 | – | COc1ccccc1COC(=O)C1=C(C)N(C[C@H]2CCCO2)C(=O)C[C@@H]1c1ccc(Cl)nc1 | – |
| 700 | 1000 | C#CCN1C(=O)CC(c2ccc(Cl)cc2)C(C(=O)OCc2ccccc2)=C1C (stereo not given) | – |
| 300 | – | COCCN1C(=O)CC(c2ccc(Cl)cc2)C(C(=O)OCc2ccc(C)cc2)=C1C (stereo not given) | – |
| 260 | 160 | COc1ccccc1COC(=O)C1=C(C)N(Cc2ccco2)C(=O)CC1c1ccc(Cl)cc1 (stereo not given) | – |
| 35 | – | COc1ccccc1COC(=O)C1=C(C)N(C[C@@H]2CCCO2)C(=O)C[C@H]1c1ccc(Cl)nc1 | – |
| – | 900 | CCN1C(=O)CC(c2ccc(Cl)cc2)C(C(=O)OCc2ccccc2)=C1C (stereo not given) | – |
| – | 1200 | COCCN1C(=O)CC(c2ccc(Cl)cc2)C(C(=O)OCc2ccccc2OC(F)(F)F)=C1C (stereo not given) | EC50 ([2]; read-out: pEC50 (converted)): 10000 nM |
| 300 | 500 | COCCN1C(=O)CC(c2ccc(Cl)cc2)C(C(=O)OCc2ccc(F)cc2)=C1C (stereo not given) | – |
| – | – | COCCN1C(=O)CC(c2ccc(Cl)cc2)C(C(=O)OCc2cccc(C)c2)=C1C (stereo not given) | EC50 ([2]; read-out: pEC50 (converted)): 316 nM |
| 1000 | 700 | COCCN1C(=O)CC(c2ccc(Cl)cc2)C(C(=O)OCc2ccncc2)=C1C (stereo not given) | – |
| 300 | – | COCCN1C(=O)CC(c2ccc(Cl)cc2)C(C(=O)OCc2cccc(OC)c2)=C1C (stereo not given) | – |
| 190 | 730 | COCCCN1C(=O)CC(c2ccc(Cl)cc2)C(C(=O)OCc2ccccc2OC)=C1C (stereo not given) | – |
| – | 600 | COCCN1C(=O)CC(c2ccc(Cl)cc2)C(C(=O)OCc2cccc(Cl)c2)=C1C (stereo not given) | – |
| 800 | 900 | CC1=C(C(=O)OCc2ccccc2)C(c2ccc(Cl)cc2)CC(=O)N1Cc1ccccc1 (stereo not given) | – |
| 400 | 800 | COCCN1C(=O)CC(c2ccc(Cl)cc2)C(C(=O)OCc2cccc(C(F)(F)F)c2)=C1C (stereo not given) | – |
| – | 800 | COCCN1C(=O)CC(c2ccc(Cl)cc2)C(C(=O)OCc2cccc(F)c2)=C1C (stereo not given) | – |
| 300 | 1000 | COCCN1C(=O)CC(c2ccc(Cl)cc2)C(C(=O)OCc2ccccc2Cl)=C1C (stereo not given) | – |
| 1200 | – | COCCN1C(=O)CC(c2ccc(Cl)cc2)C(C(=O)OCc2ccccc2C(F)(F)F)=C1C (stereo not given) | EC50 ([2]; read-out: pEC50 (converted)): 1260 nM |
| 14 | – | COc1ccccc1COC(=O)C1=C(C)N(C[C@H]2CCCO2)C(=O)C[C@H]1c1ccc(Cl)cc1 | Papp B→A at 1 h [3]: 0.4 ×10⁻⁶ cm/s; Papp A→B at 1 h [4]: 0.2 ×10⁻⁶ cm/s; EC50 ([1]; read-out: pEC50 (converted)): 15.8 nM; logD at 24 h [5]: 3.2; solubility thermodynamic at 24 h [6]: 2.6 µM (≈ 1.22 µg/mL) |
| – | 400 | COCCN1C(=O)CC(c2ccc(Cl)cc2)C(C(=O)OCc2ccc(Cl)cc2)=C1C (stereo not given) | – |
| – | 300 | COCCN1C(=O)CC(c2ccc(Cl)cc2)C(C(=O)OCc2ccc(OC)cc2)=C1C (stereo not given) | – |
| 800 | – | COCCN1C(=O)CC(c2ccc(Cl)cc2)C(C(=O)OCCCc2ccccc2)=C1C (stereo not given) | – |
| 13000 | – | COCCN1C(=O)CC(c2ccc(Cl)cc2)C(C(=O)NCc2ccccc2)=C1C (stereo not given) | – |

| EC50 ([1]; read-out: EC50) [nM] | EC50 ([2]; read-out: EC50) [nM] | SMILES | also measured |
| --- | --- | --- | --- |
| 800 | 800 | COCCN1C(=O)CC(c2ccc(Cl)cc2)C(C(=O)OCc2cccc(C(=O)OC)c2)=C1C (stereo not given) | – |
| 300 | – | COCCN1C(=O)CC(c2ccc(Cl)cc2)C(C(=O)OCc2ccc(C(=O)OC)cc2)=C1C (stereo not given) | – |
| – | 770 | COc1ccccc1COC(=O)C1=C(C)N(CCO)C(=O)CC1c1ccc(Cl)cc1 (stereo not given) | – |
| – | 15000 | COC(=O)C1=C(C)N(C)C(=O)CC1c1ccc(Cl)cc1 (stereo not given) | – |
| – | 400 | COCCN1C(=O)CC(c2ccc(Cl)cc2)C(C(=O)OCc2ccc(C(F)(F)F)cc2)=C1C (stereo not given) | – |
| – | 300 | CC1=C(C(=O)OCc2ccccc2)C(c2ccc(Cl)cc2)CC(=O)N1CC1CCC1 (stereo not given) | EC50 ([1]; read-out: pEC50 (converted)): 316 nM |
| – | 4700 | CC1=C(C(=O)OCc2ccccc2)C(c2ccc(Cl)cc2)CC(=O)N1CCN(C)C (stereo not given) | – |
| 300 | 600 | COCCN1C(=O)CC(c2ccc(Cl)cc2)C(C(=O)OCc2ccccc2F)=C1C (stereo not given) | – |
| 429 | – | COc1ccccc1COC(=O)C1=C(C)N(C[C@@H]2CCCO2)C(=O)C[C@@H]1c1ccc(Cl)nc1 | – |
| 800 | 1100 | C=C(C)CN1C(=O)CC(c2ccc(Cl)cc2)C(C(=O)OCc2ccccc2)=C1C (stereo not given) | – |
| – | 8600 | O=C1CC(c2ccc(Cl)cc2)C(C(=O)OCc2ccccc2)=CN1 (stereo not given) | – |
| 2 | – | COc1ccccc1COC(=O)C1=C(C)N(C[C@H]2CCCO2)C(=O)C[C@H]1c1ccc(Cl)nc1 | Papp B→A at 1 h [3]: 12.3 ×10⁻⁶ cm/s; Papp A→B at 1 h [4]: 22.5 ×10⁻⁶ cm/s; microsomal CLint at 40 min, 1 µM [7]: 1310 µL/min/mg; half-life at 40 min, 1 µM [8]: 24 s; logD at 24 h [5]: 3.7; solubility thermodynamic at 24 h [6]: 38.2 µM (≈ 18 µg/mL); half-life at 10 µM [9]: > 6 h |
| 800 | – | C=CCN1C(=O)CC(c2ccc(Cl)cc2)C(C(=O)OCc2ccccc2)=C1C (stereo not given) | EC50 ([2]; read-out: pEC50 (converted)): 1580 nM |
| – | – | CC1=C(C(=O)OCc2ccccc2)C(c2ccc(Cl)cc2)CC(=O)N1C (stereo not given) | EC50 ([1]; read-out: pEC50 (converted)): 631 nM |
| 6300 | – | CC1=C(C(=O)OCc2ccccc2)C(c2ccc(C)cc2)CC(=O)N1 (stereo not given) | – |
| – | 50 | COC(=O)CN1C(=O)CC(c2ccc(Cl)cc2)C(C(=O)OCc2ccccc2OC)=C1C (stereo not given) | – |
| 700 | 1200 | COCCN1C(=O)CC(c2ccc(Cl)cc2)C(C(=O)OCC2CCCCC2)=C1C (stereo not given) | – |
| 500 | 900 | CCCCN1C(=O)CC(c2ccc(Cl)cc2)C(C(=O)OCc2ccccc2)=C1C (stereo not given) | – |
| – | 300 | COCCN1C(=O)CC(c2ccc(Cl)cc2)C(C(=O)OCc2c(C)cc(C)cc2C)=C1C (stereo not given) | – |
| 2000 | – | CC1=C(C(=O)OCc2ccccc2)C(c2ccc(Cl)cc2F)CC(=O)N1 (stereo not given) | – |
| 30 | – | COc1ccccc1COC(=O)C1=C(C)N(C[C@H]2CCCO2)C(=O)C[C@H]1c1ccc(Cl)cc1 (racemic) | EC50 ([1]; read-out: pEC50 (converted)): 25.1 nM |
| 110 | – | COc1ccccc1COC(=O)C1=C(C)N(C[C@@H]2CCCO2)C(=O)C[C@H]1c1ccc(Cl)cc1 (racemic) | – |
| 2 | – | COc1ccccc1COC(=O)C1=C(C)N(CC2CCCO2)C(=O)CC1c1ccc(Cl)nc1 (racemic; 77) | EC50 ([1]; read-out: pEC50 (converted)): 31.6 nM |
| 88 | – | COc1ccccc1COC(=O)C1=C(C)N(CC2CCCO2)C(=O)CC1c1ccc(Cl)nc1 (racemic; 78) | – |
| 75 | 120 | COCCN1C(=O)CC(c2ccc(Cl)cc2)C(C(=O)OCc2ccccc2OC)=C1C (single isomer, unassigned) | – |
| 120 | – | COCCN1C(=O)CC(c2ccc(Cl)cc2)C(C(=O)OCc2ccccc2OC)=C1C (single isomer, unassigned; enantiomer 1) | – |

— ChEMBL document CHEMBL5365446, “Discovery, Structure-Activity Relationships, and In Vivo Activity of Dihydropyridone Agonists of the Bile Acid Receptor TGR5” (J Med Chem, 2023)
